Results on two compounds are retold here after US11708283B2, “Metal-chelating compositions and their use in methods of removing or inhibiting barium scale” (CORNELL UNIVERSITY, priority 2018, dated 2023).

Structures are written as SMILES.

A short description of series [1]: Hydroxyapatite challenge of Ba-L complexes (GFAAS). To be noted: HAP suspension, pH 7.6, after 20 h. It is filed as physicochemical. How it is done: HAP was suspended in solutions containing the complexes formed in situ (1.1 equiv L, 1.0 equiv Ba^2+) in pH 7.6 buffer, and the amount of Ba^2+ remaining in the liquid phase, reflecting intact Ba-L complex, was determined by graphite furnace atomic absorption spectroscopy (GFAAS). Whereas free Ba^2+ is adsorbed by HAP in less than 10 min, Ba-macropa and Ba-macropaquin respectively retained 82% and 68% of this ion after 20 h. […] This feature may be important for Ba^2+ chelation in industrial applications, such as scale dissolution, because numerous other metal ions are present during these processes. […]
More specifically, hydroxyapatite (HAP, Ca5(PO4)3(OH)) challenges were carried out in 500 mM Tris buffer. […] The concentrations of these stocks were verified by quantitative NMR (n=2 for each ligand) using two independently prepared standards of potassium hydrogen phthalate in D2O. […] The concentration of macroquin-SO3 was determined by UV-vis spectrophotometry from the average of two titrations with Ba^2+. […] The absorbance at 320 nm was monitored until spectral changes ceased, at which point [Ba^2+]=[L]. From the volume of titrant added, the concentration of the stock solution of macroquin-SO3 was calculated to be 8.17 mM, which was within 9% of the theoretical value of 8.96 mM based on mass. […]

The conditions of series [2]: CRC Handbook; cited from earlier work.

As to `O=C([O-])c1cccc(CN2CCOCCOCCN(Cc3cccc(C(=O)[O-])n3)CCOCCOCC2)n1.[Ba+2]` [Ba-macropa], in series [1], the “Ba^2+ remaining in the liquid phase (intact Ba-L complex)” value stood at 82%.
Regarding `O=S(=O)([O-])[O-].[Ba+2]` [BaSO4], the Ksp in series [2] is 1.08×10^−10.
